Data reported in US8710065B2, “Tricyclic inhibitors of kinases” (AbbVie Inc., priority 2011, dated 2014).

What follows are molecules tested against T1, GST-tagged-Wee1 kinase (Homo sapiens, UniProt P30291) (assay: Wee1 time-resolved fluorescence equilibrium binding assay (displacement of Oregon Green-labeled ATP-competitive kinase probe)). Conditions: read-out: Wee-1 inhibition (Ki).
T1 construct: purchased Carnabio (Carna Biosciences) 05-177
Description: Wee1 kinase was assayed using a time-resolved fluorescence equilibrium binding assay monitoring displacement of a rapidly reversible Oregon Green-labeled ATP-competitive kinase probe (N-(2-(2-(2-(4-(4-(5-chloro-4-(2-(1-hydroxycyclobutyl)thiazol-5-yl)-1H-pyrrolo[2,3-b]pyridin-2-yl)phenyl)piperazin-1-yl)ethoxy)ethoxy)ethyl)-2′,7′-difluoro-3′,6′-dihydroxy-3-oxo-3H-spiro[isobenzofuran-1,9′-xanthene]-5-carboxamide) by competitive Wee1 inhibitors.
Table 1 depicts enzyme inhibition data (Ki) for exemplary compounds.

T1 sequence (P30291 whole entry): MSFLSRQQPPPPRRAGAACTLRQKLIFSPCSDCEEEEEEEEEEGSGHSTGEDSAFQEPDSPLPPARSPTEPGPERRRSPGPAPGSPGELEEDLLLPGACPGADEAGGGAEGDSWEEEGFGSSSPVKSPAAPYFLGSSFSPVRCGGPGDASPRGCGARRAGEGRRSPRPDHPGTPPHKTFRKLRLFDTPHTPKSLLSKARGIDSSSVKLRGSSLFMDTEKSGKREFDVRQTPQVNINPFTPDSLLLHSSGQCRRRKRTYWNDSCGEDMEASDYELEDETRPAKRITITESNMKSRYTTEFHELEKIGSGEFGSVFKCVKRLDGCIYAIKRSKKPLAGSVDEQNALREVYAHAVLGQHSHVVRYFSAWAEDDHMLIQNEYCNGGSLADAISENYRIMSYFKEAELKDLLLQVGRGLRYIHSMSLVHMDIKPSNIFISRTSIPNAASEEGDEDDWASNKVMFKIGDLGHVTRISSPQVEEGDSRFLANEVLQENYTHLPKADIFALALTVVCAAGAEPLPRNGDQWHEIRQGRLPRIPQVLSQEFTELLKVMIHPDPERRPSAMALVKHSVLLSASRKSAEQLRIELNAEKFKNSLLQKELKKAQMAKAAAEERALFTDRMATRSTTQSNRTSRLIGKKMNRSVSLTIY

Row | Ki [nM] | SMILES
1 | < 10 | CN1CCN(c2ccc(Nc3ncc4c(=O)n(-c5ccccc5Cl)c5nccn5c4n3)cc2)CC1 [Example 1, 6-(2-chlorophenyl)-2-{[4-(4-methylpiperazin-1-yl)phenyl]amino}imidazo[1,2-a]pyrimido[5,4-e]pyrimidin-5(6H)-one]
2 | < 10 | CN1CCN(c2cccc(Nc3ncc4c(=O)n(-c5ccccc5Cl)c5nccn5c4n3)c2)CC1 [Example 6, 6-(2-chlorophenyl)-2-{[3-(4-methylpiperazin-1-yl)phenyl]amino}imidazo[1,2-a]pyrimido[5,4-e]pyrimidin-5(6H)-one]
3 | < 10 | O=c1c2cnc(Nc3ccc(N4CCCCC4)cc3)nc2n2ccnc2n1-c1ccccc1Cl [Example 8, 6-(2-chlorophenyl)-2-{[4-(piperidin-1-yl)phenyl]amino}imidazo[1,2-a]pyrimido[5,4-e]pyrimidin-5(6H)-one]
4 | < 10 | O=c1c2cnc(Nc3ccc(N4CCOCC4)cc3)nc2n2ccnc2n1-c1ccccc1Cl [Example 10, 6-(2-chlorophenyl)-2-{[4-(morpholin-4-yl)phenyl]amino}imidazo[1,2-a]pyrimido[5,4-e]pyrimidin-5(6H)-one]
5 | < 10 | CC(=O)N1CCN(c2ccc(Nc3ncc4c(=O)n(-c5ccccc5Cl)c5nccn5c4n3)cc2)CC1 [Example 13, 2-{[4-(4-acetylpiperazin-1-yl)phenyl]amino}-6-(2-chlorophenyl)imidazo[1,2-a]pyrimido[5,4-e]pyrimidin-5(6H)-one]
6 | < 10 | Cc1ccccc1-n1c(=O)c2cnc(Nc3ccc(N4CCN(C)CC4)cc3)nc2n2ccnc12 [Example 14, 6-(2-methylphenyl)-2-{[4-(4-methylpiperazin-1-yl)phenyl]amino}imidazo[1,2-a]pyrimido[5,4-e]pyrimidin-5(6H)-one]
7 | 10 to 100 | CN1CCN(c2ccc(Nc3ncc4c(=O)n(-c5ccccc5C(F)(F)F)c5nccn5c4n3)cc2)CC1 [Example 15, 2-{[4-(4-methylpiperazin-1-yl)phenyl]amino}-6-[2-(trifluoromethyl)phenyl]imidazo[1,2-a]pyrimido[5,4-e]pyrimidin-5(6H)-one]
8 | 10 to 100 | COc1ccccc1-n1c(=O)c2cnc(Nc3ccc(N4CCN(C)CC4)cc3)nc2n2ccnc12 [Example 16, 6-(2-methoxyphenyl)-2-{[4-(4-methylpiperazin-1-yl)phenyl]amino}imidazo[1,2-a]pyrimido[5,4-e]pyrimidin-5(6H)-one]
9 | < 10 | Cc1cc(Nc2ncc3c(=O)n(-c4ccccc4Cl)c4nccn4c3n2)ccc1N1CCN(C)CC1 [Example 22, 6-(2-chlorophenyl)-2-{[3-methyl-4-(4-methylpiperazin-1-yl)phenyl]amino}imidazo[1,2-a]pyrimido[5,4-e]pyrimidin-5(6H)-one]
10 | < 10 | Cc1cnc2n(-c3ccccc3Cl)c(=O)c3cnc(Nc4ccc(N5CCN(C)CC5)cc4)nc3n12 [Example 25, 6-(2-chlorophenyl)-9-methyl-2-{[4-(4-methylpiperazin-1-yl)phenyl]amino}imidazo[1,2-a]pyrimido[5,4-e]pyrimidin-5(6H)-one]
11 | 10 to 100 | CN1CCN(c2ccc(Nc3ncc4c(=O)n(-c5ccccc5Cl)c5nncn5c4n3)cc2)CC1 [Example 26, 6-(2-chlorophenyl)-2-{[4-(4-methylpiperazin-1-yl)phenyl]amino}pyrimido[5,4-e][1,2,4]triazolo[4,3-a]pyrimidin-5(6H)-one]
12 | < 10 | CC(C)N1CCN(c2ccc(Nc3ncc4c(=O)n(-c5ccccc5Cl)c5nccn5c4n3)cc2)CC1 [Example 29, 6-(2-chlorophenyl)-2-({4-[4-(propan-2-yl)piperazin-1-yl]phenyl}amino)imidazo[1,2-a]pyrimido[5,4-e]pyrimidin-5(6H)-one]
13 | < 10 | O=c1c2cnc(Nc3ccc(N4CCN(CC5CCCCC5)CC4)cc3)nc2n2ccnc2n1-c1ccccc1Cl [Example 30, 6-(2-chlorophenyl)-2-({4-[4-(cyclohexylmethyl)piperazin-1-yl]phenyl}amino)imidazo[1,2-a]pyrimido[5,4-e]pyrimidin-5(6H)-one]

The next lines start with the molecule.

Row | SMILES | Ki [nM]
14 | O=c1c2cnc(Nc3ccccc3)nc2n2ccnc2n1-c1ccccc1Cl [Example 2, 2-anilino-6-(2-chlorophenyl)imidazo[1,2-a]pyrimido[5,4-e]pyrimidin-5(6H)-one] | 10 to 100
15 | O=c1c2cnc(Nc3ccncc3)nc2n2ccnc2n1-c1ccccc1Cl [Example 3, 6-(2-chlorophenyl)-2-(pyridin-4-ylamino)imidazo[1,2-a]pyrimido[5,4-e]pyrimidin-5(6H)-one] | > 100
16 | CN1Cc2cc(Nc3ncc4c(=O)n(-c5ccccc5Cl)c5nccn5c4n3)ccc2C2(CC2)C1 [Example 4, 6-(2-chlorophenyl)-2-[(2′-methyl-2′,3′-dihydro-1′H-spiro[cyclopropane-1,4′-isoquinolin]-7′-yl)amino]imidazo[1,2-a]pyrimido[5,4-e]pyrimidin-5(6H)-one] | < 10
17 | O=c1c2cnc(Nc3ccc4c(c3)CCCC4)nc2n2ccnc2n1-c1ccccc1Cl [Example 5, 6-(2-chlorophenyl)-2-(5,6,7,8-tetrahydronaphthalen-2-ylamino)imidazo[1,2-a]pyrimido[5,4-e]pyrimidin-5(6H)-one] | 10 to 100
18 | O=c1c2cnc(Nc3ccc(C4CCCCC4)cc3)nc2n2ccnc2n1-c1ccccc1Cl [Example 7, 6-(2-chlorophenyl)-2-[(4-cyclohexylphenyl)amino]imidazo[1,2-a]pyrimido[5,4-e]pyrimidin-5(6H)-one] | 10 to 100
19 | O=c1c2cnc(Nc3ccc(CN4CCCC4)cc3)nc2n2ccnc2n1-c1ccccc1Cl [Example 9, 6-(2-chlorophenyl)-2-{[4-(pyrrolidin-1-ylmethyl)phenyl]amino}imidazo[1,2-a]pyrimido[5,4-e]pyrimidin-5(6H)-one] | < 10
20 | O=c1c2cnc(Nc3cccc(CN4CCCC4)c3)nc2n2ccnc2n1-c1ccccc1Cl [Example 11, 6-(2-chlorophenyl)-2-{[3-(pyrrolidin-1-ylmethyl)phenyl]amino}imidazo[1,2-a]pyrimido[5,4-e]pyrimidin-5(6H)-one] | 10 to 100
21 | CC(=O)N1CCc2ccc(Nc3ncc4c(=O)n(-c5ccccc5Cl)c5nccn5c4n3)cc21 [Example 12, 2-[(1-acetyl-2,3-dihydro-1H-indol-6-yl)amino]-6-(2-chlorophenyl)imidazo[1,2-a]pyrimido[5,4-e]pyrimidin-5(6H)-one] | < 10
22 | COc1cc(N2CCN(C)CC2)ccc1Nc1ncc2c(=O)n(-c3ccccc3Cl)c3nccn3c2n1 [Example 17, 6-(2-chlorophenyl)-2-{[2-methoxy-4-(4-methylpiperazin-1-yl)phenyl]amino}imidazo[1,2-a]pyrimido[5,4-e]pyrimidin-5(6H)-one] | > 100
23 | CN1CCCc2ccc(Nc3ncc4c(=O)n(-c5ccccc5Cl)c5nccn5c4n3)cc21 [Example 18, 6-(2-chlorophenyl)-2-[(1-methyl-1,2,3,4-tetrahydroquinolin-7-yl)amino]imidazo[1,2-a]pyrimido[5,4-e]pyrimidin-5(6H)-one] | 10 to 100
24 | O=C1COc2ccc(Nc3ncc4c(=O)n(-c5ccccc5Cl)c5nccn5c4n3)cc2N1 [Example 19, 6-(2-chlorophenyl)-2-[(3-oxo-3,4-dihydro-2H-1,4-benzoxazin-6-yl)amino]imidazo[1,2-a]pyrimido[5,4-e]pyrimidin-5(6H)-one] | 10 to 100
25 | CC(C)(C)OC(=O)N1CCc2ccc(Nc3ncc4c(=O)n(-c5ccccc5Cl)c5nccn5c4n3)cc2C1 [Example 20, tert-butyl 7-{[6-(2-chlorophenyl)-5-oxo-5,6-dihydroimidazo[1,2-a]pyrimido[5,4-e]pyrimidin-2-yl]amino}-3,4-dihydroisoquinoline-2(1H)-carboxylate] | 10 to 100
26 | O=c1c2cnc(Nc3ccc4c(c3)CNCC4)nc2n2ccnc2n1-c1ccccc1Cl [Example 21, 6-(2-chlorophenyl)-2-(1,2,3,4-tetrahydroisoquinolin-7-ylamino)imidazo[1,2-a]pyrimido[5,4-e]pyrimidin-5(6H)-one] | < 10
27 | C=CCn1c(=O)c2cnc(Nc3ccc(N4CCN(C)CC4)cc3)nc2n2ccnc12 [Example 23, 6-allyl-2-{[4-(4-methylpiperazin-1-yl)phenyl]amino}imidazo[1,2-a]pyrimido[5,4-e]pyrimidin-5(6H)-one] | > 100
28 | CN1CCN(c2ccc(Nc3ncc4c(=O)n(C5CCCCC5)c5nccn5c4n3)cc2)CC1 [Example 24, 6-cyclohexyl-2-{[4-(4-methylpiperazin-1-yl)phenyl]amino}imidazo[1,2-a]pyrimido[5,4-e]pyrimidin-5(6H)-one] | > 100
29 | Cc1nnc2n(-c3ccccc3Cl)c(=O)c3cnc(Nc4ccc(N5CCN(C)CC5)cc4)nc3n12 [Example 27, 6-(2-chlorophenyl)-9-methyl-2-{[4-(4-methylpiperazin-1-yl)phenyl]amino}pyrimido[5,4-e][1,2,4]triazolo[4,3-a]pyrimidin-5(6H)-one] | 10 to 100
30 | CN1CCN(c2ccc(Nc3ncc4c(=O)n(-c5ccccc5Cl)c5nnnn5c4n3)cc2)CC1 [Example 28, 4-(2-chlorophenyl)-8-{[4-(4-methylpiperazin-1-yl)phenyl]amino}pyrimido[5,4-e]tetrazolo[1,5-a]pyrimidin-5(4H)-one] | 10 to 100
31 | N#Cc1cccc(CN2CCN(c3ccc(Nc4ncc5c(=O)n(-c6ccccc6Cl)c6nccn6c5n4)cc3)CC2)c1 [Example 31, 3-{[4-(4-{[6-(2-chlorophenyl)-5-oxo-5,6-dihydroimidazo[1,2-a]pyrimido[5,4-e]pyrimidin-2-yl]amino}phenyl)piperazin-1-yl]methyl}benzonitrile] | 10 to 100
32 | CN1CCN(c2ccc(Nc3ncc4c(=O)n(-c5ccccc5Cl)c5nccn5c4n3)cc2Cl)CC1 [Example 32, 2-{[3-chloro-4-(4-methylpiperazin-1-yl)phenyl]amino}-6-(2-chlorophenyl)imidazo[1,2-a]pyrimido[5,4-e]pyrimidin-5(6H)-one] | < 10
